Positions of bridges follow the written chain, without caps; N, C: chain ends. Residues, ends and D or L forms follow the SMILES beside them. Chains are numbered I, II in the order given.
Experiments:
[1] = test system: LPS (E. coli serotype 055:B5); assay: BODIPY TR cadaverine (BC) displacement assay with LPS; type: binding; conditions: no unit in table; ED50 values in μM; 5 mM HEPES pH 7.4; duplicates; read-out: BC50 (LPS binding)
Source text: To investigate the interaction of B2088 with LPS, we performed the BODIPY TR cadaverine (BC) displacement assay reported by Wood et al.[22]. The probe binds to the lipid A part of the LPS with moderate affinity and can be displaced by putative LPS-binding molecules. The method was used to probe the affinity of polycationic molecules and LPS binding proteins. First, we determined the affinity of polymyxin B (PMB), a lipopeptide cyclic antibiotic which has a high affinity for LPS. […] Figure 1a,b show the concentration-dependent displacement of LPS/lipid A-bound BC upon addition of B2088. […] To confirm the importance of branching, we determined the BC50 for a linear retrodimer having the amino acid sequence, […] (Fig. 1d). The determined value was 2-fold higher (3.9 ± 0.1 μM) than that of B2088, confirming a weaker affinity of the linear peptide.
The BC displacement assay was used to determine the ability of each peptide to bind to LPS. The florescent probe, BODIPY TR cadaverine (BC) was purchased from Molecular Probes/ Invitrogen (USA). A stock solution containing 1 mg/ml of LPS (E. coli serotype 055:B5) was prepared in dimethyl sulfoxide (DMSO) and another stock solution containing 1 mg/ml of BC dye was prepared in 5 mM HEPES buffer (pH 7.4). The optimum saturation concentration of BC:LPS ratio was standardized following the protocol provided by Wood et al. (22). From the BC stock, 240 μl was mixed with 500 μl from the LPS stock solution in 5 mM HEPES buffer (pH 7.4) to prepare 20 ml of BC:LPS mixture. Two-fold serial dilutions of each peptide in 5 mM HEPES buffer (pH 7.4) was prepared from their 1 mg/ml stock solutions to obtain a final range of 0.02–25.6 μM. The BC:LPS mixture was added to 100 μl of each peptide congener in a 1:1 ratio in each well of a 96-well black Costar™ polystyrene microtitre plate (Corning Incorporated, NY, USA). The maximum fluorescence intensity (Fmax) was determined using a mixture containing 100 μl PMB (50 μg/ml) and 100 μl BC:LPS solution, as PMB is considered the ‘gold standard’ for LPS-sequestering agents. The minimum fluorescence intensity (F0) was measured using 200 μl of BC:LPS mixture to determine the background noise for this experiment. Fluorescence measurements for each peptide (F) were determined using a microplate reader (Model: TECAN Infinite 200, Austria) with excitation and emission wavelengths set at 580 nm and 620 nm respectively. The percentage of BC displacement was then calculated using the formula: […]
The experiments were performed in duplicates and the effective concentration required for 50% displacement of BC dye (ED50) from LPS with respect to PMB was determined by curve fitting using Graphpad Prism (CA, USA). A higher ED50 value for the peptide indicates a lower affinity for LPS.

[2] = test system: P. aeruginosa ATCC 27853; assay: microbe, parasite or virus in culture; type: cell-based; conditions: ATCC 27853, 24 h
Experimental: (§1) MIC of each peptide was determined using the microdilution method in a 96 well microtitre plates (SPL Life Sciences Co., Ltd, Korea). Two-fold serial dilutions of each peptide in Mueller-Hinton Broth (MHB) was prepared from a 1 mg/ml stock solution of the peptide in the same broth, to obtain a final concentration in the range of 0.0976–50 μg/ml in each well. Bacterial suspensions (P. aeruginosa ATCC 27853, P. aeruginosa 4877, P. aeruginosa 23155, K. pneumoniae ATCC 10031 and K. pneumoniae 4299) were prepared by suspending the overnight cultured bacteria in saline and adjusting the inoculum to ~10^8 colony forming units (CFU) per ml. A further 150-fold dilution was then prepared in MHB to achieve a final cell density of 10^5–10^6 CFU/ml. In each well, 100 μl of inoculum was mixed with the equal volume of peptides at their 2× concentration. Positive and negative controls contained 200 μl of inoculum (without any peptide) and broth alone (no peptide/inoculum) respectively. Another negative control in which MHB containing 200 μl of peptide alone in its highest concentration tested (50 μg/ml) was also included to ensure that the optical density measured in the test wells was not due to turbidity of the peptides in solution. The 96 well polystyrene plates were then incubated at 37 °C for 24 h and the optical density at 600 nm (OD600) was measured every 30 min continuously using a TECAN microplate reader (TECAN Infinite 200, Austria). All the experiments were performed in two independent duplicates and the MIC was determined as the lowest peptide concentration in which no visible growth was observed.

[3] = test system: K. pneumoniae ATCC10031; type: cell-based; conditions: ATCC10031, 24 h
Experimental: as §1

[4] = test system: P. aeruginosa 23155; type: cell-based; conditions: 23155, 24 h
Experimental: as §1

[5] = test system: K. pneumonia 4299; assay: microbe, parasite or virus in culture; type: cell-based, K. pneumoniae; conditions: 24 h
Experimental: as §1

[6] = test system: P. aeruginosa ATCC 27853; type: cell-based; conditions: ATCC 27853; for Fractional inhibitory concentration of peptide/PMB, combination with Genta: first number in parenthesis; for Fractional inhibitory concentration of antibiotic, Genta combination: second number in parenthesis
Experimental: (§2) The synergism between peptides with conventional antibiotics was evaluated using checkerboard assays. For a comparison polymyxin B (PMB) was also tested against each antibiotic. From their stock solutions, two-fold dilutions of each antibiotic and peptide to 1× MIC were prepared in MHB. 50 μl of each peptide concentration was added into the wells of a 96-well polystyrene plates (SPL Life Sciences Co. Ltd, Korea) in a horizontal orientation and the same volume of each antibiotic concentration were then added in a vertical orientation. Bacterial suspensions were prepared in MHB to yield final cell density of ~10^6 CFU/ml and 100 μl of bacterial suspension was mixed with each peptide-antibiotic combinations. This procedure was repeated for wells containing 200 μl of peptide alone and 200 μl of antibiotic alone in various concentrations. The positive and negative controls contained 200 μl of inoculum and MHB alone respectively. The plates were incubated at 37 °C for 24 hours and the optical density at 600 nm (OD600) was monitored as before. Fractional inhibitory concentration index (FICI) for all antibiotic- peptide combinations was calculated through the summation of (MIC of peptide in the combination/ MIC of peptide alone) and (MIC of antibiotics in combination/MIC of antibiotic alone). The experiments were performed in two independent duplicates and the combinations that gave the lowest FICI values was reported.

[7] = test system: P. aeruginosa DR4877/07; type: cell-based; conditions: for Fractional inhibitory concentration of peptide/PMB, combination with Chloarm / Fractional inhibitory concentration of peptide/PMB, combination with Erythro / Fractional inhibitory concentration of peptide/PMB, combination with Levo / Fractional inhibitory concentration of peptide/PMB, combination with Tobra: first number in parenthesis; for Fractional inhibitory concentration of antibiotic, Chloarm combination / Fractional inhibitory concentration of antibiotic, Erythro combination / Fractional inhibitory concentration of antibiotic, Levo combination / Fractional inhibitory concentration of antibiotic, Tobra combination: second number in parenthesis
Experimental: as §2

[8] = test system: P. aeruginosa ATCC 9027; assay: Outer membrane permeability assay (NPN); type: cell-based; conditions: no unit in table; Fig. S5 axis [Peptide], μM; 10 μM NPN, 5 mM HEPES pH 7.4, ex 355/em 405 nm; average of two titrations; read-out: PC50 (peptide concentration for half-maximal NPN intensity, OM permeability)
Experimental: The ability of each peptide to permeabilize the OM of Gram-negative organisms was determined using the hydrophobic fluorescent probe 1-N-phenylnaphthylamine (NPN) as previously reported. P. aeruginosa ATCC 9027 cells from an overnight MHB culture were harvested after centrifuging at 3000 rpm for 10 minutes. The pellet was washed twice, suspended in 5 mM HEPES (N- 2-hydroxyethylpiperazine-N’-2 ethanesulfonic acid) buffer (pH 7.4) and adjusted to an OD600 of 0.200. A suspension containing 600 μl of bacteria cells and 1 μl of a concentrated stock solution of NPN was mixed into a 10 mm stirred quartz cuvette so that the final concentration of the probe remained 10 μM. Aliquots containing 1 μl of each peptide in various concentrations (100, 50, 25, 15, 10, 5, 2.5 and 1 μg/ml) were added upon NPN dye stabilization. The fluorescence intensity was monitored using a Quanta Master spectrophotometer with a constant slit width of 0.5 nm, excitation and emission wavelengths set at 355 nm and 405 nm respectively. The peptide concentration required for half-maximal intensity (PC50) was determined by sigmoidal curve fitting using Graphpad Prism software. The experimental data is average of two independent titration experiments.

Row | Compound | EC50 [1] [µM] | Minimum Inhibitory Concentration against P. aeruginosa ATCC 27853 [2] [µM] | Minimum Inhibitory Concentration against K. pneumoniae ATCC10031 [3] [µM] | Minimum Inhibitory Concentration against P. aeruginosa 23155 [4] [µM] | Minimum Inhibitory Concentration against K. pneumonia 4299 [5] [µM] | Fractional inhibitory concentration of peptide/PMB, combination with Genta [6] | Fractional inhibitory concentration of antibiotic, Genta combination [6] | Fractional inhibitory concentration of peptide/PMB, combination with Chloarm [7] | Fractional inhibitory concentration of peptide/PMB, combination with Erythro [7] | Fractional inhibitory concentration of peptide/PMB, combination with Levo [7] | Fractional inhibitory concentration of peptide/PMB, combination with Tobra [7] | Fractional inhibitory concentration of antibiotic, Chloarm combination [7] | Fractional inhibitory concentration of antibiotic, Erythro combination [7] | Fractional inhibitory concentration of antibiotic, Levo combination [7] | Fractional inhibitory concentration of antibiotic, Tobra combination [7] | EC50 [8] [µM]
1 | C[C@H](NC(=O)[C@H](C)NC(=O)[C@H](CCCCN)NC(=O)[C@H](CCCNC(=N)N)NC(=O)CNC(=O)[C@@H](N)CCCNC(=N)N)C(=O)N[C@@H](CCCNC(=N)N)C(=O)N[C@@H](CCCNC(=N)N)C(=O)NCCCC[C@H](NC(=O)[C@H](CCCNC(=N)N)NC(=O)[C@H](CCCNC(=N)N)NC(=O)[C@H](C)NC(=O)[C@H](C)NC(=O)[C@H](CCCCN)NC(=O)[C@H](CCCNC(=N)N)NC(=O)CNC(=O)[C@@H](N)CCCNC(=N)N)C(=O)N[C@@H](CCCCN)C(=O)O (I: H-RGRKAARRKK-OH / II: H-RGRKAARR; amide I:9-II:C; N-terminus and C-terminus assumed) | 2.1 ± 0.2 | 11.5 | 11.5 | 11.5 | 23 | 0.5 | 0.06 | 0.5 | (0.5,0.5) | 0.5 | 0.5 | 0.13 | (0.5,0.5) | 0.25 | 0.25 | 21.7 ± 0.8
2 | N=C(N)NCCC[C@H](NC(=O)CNC(=O)[C@@H](N)CCCNC(=N)N)C(=O)N[C@@H](CCCCN)C(=O)N[C@@H](Cc1ccccc1)C(=O)N[C@@H](Cc1ccccc1)C(=O)N[C@@H](CCCNC(=N)N)C(=O)N[C@@H](CCCNC(=N)N)C(=O)NCCCC[C@H](NC(=O)[C@H](CCCNC(=N)N)NC(=O)[C@H](CCCNC(=N)N)NC(=O)[C@H](Cc1ccccc1)NC(=O)[C@H](Cc1ccccc1)NC(=O)[C@H](CCCCN)NC(=O)[C@H](CCCNC(=N)N)NC(=O)CNC(=O)[C@@H](N)CCCNC(=N)N)C(=O)N[C@@H](CCCCN)C(=O)O (I: H-RGRKFFRRKK-OH / II: H-RGRKFFRR; amide I:9-II:C; N-terminus and C-terminus assumed) | 0.93 ± 0.01 | 5.0 | 5.0 | 5.0 | 10.1 | (0.25,0.25) | (0.25,0.25) | 0.25 | (0.5,0.5) | (0.5,0.5) | 0.25 | 0.13 | (0.5,0.5) | (0.5,0.5) | 0.06 | 10 ± 0.3
3 | CC[C@H](C)[C@H](NC(=O)[C@H](CCCCN)NC(=O)[C@H](CCCNC(=N)N)NC(=O)CNC(=O)[C@@H](N)CCCNC(=N)N)C(=O)N[C@H](C(=O)N[C@@H](CCCNC(=N)N)C(=O)N[C@@H](CCCNC(=N)N)C(=O)NCCCC[C@H](NC(=O)[C@H](CCCNC(=N)N)NC(=O)[C@H](CCCNC(=N)N)NC(=O)[C@@H](NC(=O)[C@@H](NC(=O)[C@H](CCCCN)NC(=O)[C@H](CCCNC(=N)N)NC(=O)CNC(=O)[C@@H](N)CCCNC(=N)N)[C@@H](C)CC)[C@@H](C)CC)C(=O)N[C@@H](CCCCN)C(=O)O)[C@@H](C)CC (I: H-RGRKIIRRKK-OH / II: H-RGRKIIRR; amide I:9-II:C; N-terminus and C-terminus assumed) | 1.44 ± 0.02 | 2.7 | 2.7 | 5.3 | 5.3 | 0.5 | 0.01 | 0.5 | (0.5,0.5) | 0.5 | 0.5 | 0.25 | (0.5,0.5) | 0.13 | 0.06 | 17 ± 0.2

— article PMC4865820, “Branched Peptide, B2088, Disrupts the Supramolecular Organization of Lipopolysaccharides and Sensitizes the Gram-negative Bacteria” (Scientific Reports, 2016)
